Experimental data taken from patent US20100035926A1, “PYRAZOLE DERIVATIVES AS NON-STEROIDAL GLUCOCORTICOID RECEPTOR LIGANDS” (priority 2006, published 2010).
Read-outs that look alike come from different tables or passages of the source.

Assays:
Progesterone Receptor = target: T1, Progesterone Receptor (Homo sapiens, UniProt P06401); assay: Assay for Progesterone Receptor Agonist Activity (CV-1 cells, PRb-BacMam, MMTV-BacMam); type: cell-based; conditions: at least once in this assay, read-out: progesterone receptor agonist pEC50 (converted)
T1 construct: expressed in transfected cells; host or cells: CV-1 cells transduced with PRb-BacMam and MMTV-BacMam
T1 sequence (P06401 1-933): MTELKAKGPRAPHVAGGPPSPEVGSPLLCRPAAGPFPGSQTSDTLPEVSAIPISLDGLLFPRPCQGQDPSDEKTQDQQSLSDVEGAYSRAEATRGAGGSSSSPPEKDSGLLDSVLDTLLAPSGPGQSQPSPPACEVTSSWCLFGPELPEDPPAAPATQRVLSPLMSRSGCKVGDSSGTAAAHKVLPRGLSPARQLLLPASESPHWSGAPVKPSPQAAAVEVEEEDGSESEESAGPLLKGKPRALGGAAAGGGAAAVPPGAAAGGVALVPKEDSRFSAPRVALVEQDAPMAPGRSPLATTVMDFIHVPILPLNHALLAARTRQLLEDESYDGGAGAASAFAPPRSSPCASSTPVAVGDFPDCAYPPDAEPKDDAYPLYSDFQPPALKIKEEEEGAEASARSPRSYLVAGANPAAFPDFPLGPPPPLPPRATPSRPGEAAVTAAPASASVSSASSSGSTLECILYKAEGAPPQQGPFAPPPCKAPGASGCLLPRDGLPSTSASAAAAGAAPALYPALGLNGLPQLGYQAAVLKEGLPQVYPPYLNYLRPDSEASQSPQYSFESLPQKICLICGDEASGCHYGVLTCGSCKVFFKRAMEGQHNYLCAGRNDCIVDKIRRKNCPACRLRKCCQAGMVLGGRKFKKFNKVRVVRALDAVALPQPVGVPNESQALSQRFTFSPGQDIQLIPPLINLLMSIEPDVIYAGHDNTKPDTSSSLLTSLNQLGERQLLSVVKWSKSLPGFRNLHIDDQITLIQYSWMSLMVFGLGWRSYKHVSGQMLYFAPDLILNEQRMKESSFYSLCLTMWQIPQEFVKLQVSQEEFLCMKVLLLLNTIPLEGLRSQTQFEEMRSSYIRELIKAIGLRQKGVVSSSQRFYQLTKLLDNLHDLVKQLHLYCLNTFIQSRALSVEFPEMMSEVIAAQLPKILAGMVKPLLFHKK
Procedure: A T225 flask of CV-1 cells at a density of 80% confluency was washed with PBS, detached from the flask using 0.25% trypsin and counted using a Sysmex KX-21N. Cells were diluted in DMEM containing 10% Hyclone, 2 mM […] and 1% Pen/Strep at 140 cells/μl and transduced with 10% PRb-BacMam and 10% MMTV-BacMam. […] of suspension cells were dispensed to each well of white Nunc 384-well plates, containing compounds at the required concentration. After 24 hr 10 μl of Steadylite were added to each well of the plates. Plates were incubated in the dark for 10 min before reading them on a Viewlux reader. Dose response curves were constructed from which pEC50 values were estimated.

glucocorticoid receptor = target: T2, glucocorticoid receptor (Homo sapiens, UniProt P04150); assay: Glucocorticoid Receptor Binding Assay (fluorescence polarisation, displacement of Alexa 555 labelled dexamethasone derivative); conditions: at least once in this assay; read-out: glucocorticoid binding pIC50 (converted)
T2 construct: a partially purified full length glucocorticoid receptor
T2 sequence (P04150 1-777): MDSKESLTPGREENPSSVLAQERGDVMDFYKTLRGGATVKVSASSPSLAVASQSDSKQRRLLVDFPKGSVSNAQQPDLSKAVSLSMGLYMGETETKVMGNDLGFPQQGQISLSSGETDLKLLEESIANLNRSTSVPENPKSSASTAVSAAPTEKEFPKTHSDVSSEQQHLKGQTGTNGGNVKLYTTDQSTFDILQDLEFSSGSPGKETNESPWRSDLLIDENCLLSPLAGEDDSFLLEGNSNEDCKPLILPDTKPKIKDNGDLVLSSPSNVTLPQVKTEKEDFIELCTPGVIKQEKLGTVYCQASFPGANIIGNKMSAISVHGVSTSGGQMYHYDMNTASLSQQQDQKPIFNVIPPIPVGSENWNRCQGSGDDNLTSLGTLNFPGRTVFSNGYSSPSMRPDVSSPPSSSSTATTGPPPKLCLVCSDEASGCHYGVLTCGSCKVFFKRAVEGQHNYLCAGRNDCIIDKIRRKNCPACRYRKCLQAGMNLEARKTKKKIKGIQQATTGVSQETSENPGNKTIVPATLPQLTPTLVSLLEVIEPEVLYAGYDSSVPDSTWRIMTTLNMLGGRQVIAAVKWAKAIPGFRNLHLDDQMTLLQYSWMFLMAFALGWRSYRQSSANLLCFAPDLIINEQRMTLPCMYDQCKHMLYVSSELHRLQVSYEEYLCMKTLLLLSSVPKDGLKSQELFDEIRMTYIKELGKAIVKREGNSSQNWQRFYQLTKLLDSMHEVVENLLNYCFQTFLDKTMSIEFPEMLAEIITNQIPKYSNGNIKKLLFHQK
Procedure: Compounds were solvated and diluted in DMSO, and transferred directly into assay plates. Fluorescent dexamethasone and a partially purified full length glucocorticoid receptor were added to the plates, together with buffer components to stabilise the GR protein and incubated at room temperature for 2 hr in the dark. Binding of each compound was assessed by analysing the displacement of fluorescent ligand by measuring the decrease in fluorescence polarisation signal from the mixture.

GR [1] = target: T3, GR (Homo sapiens, UniProt P04150); assay: GR Functional Assay - NFκB Assay (A549 SPAP cells, TNFα stimulated); type: cell-based; conditions: for Emax: agonists, read-out: average maximum asymptote in the NFkB assay
T3 construct: endogenous in cells; host or cells: A549 (human lung carcinoma, ECACC No. 86012804), stably transfected with reporter plasmids only
T3 sequence (P04150 1-777): T2 sequence (P04150 1-777)
Procedure: Stimulation of the cell line with TNFα results in intracellular signal transduction and ultimately translocation of NFκB into the nucleus. This activates the inserted DNA sequence resulting in transcription of the integrated SPAP gene, which is quantified using a calorimetric assay. […] The stably transfected cell line was grown as a monolayer in DMEM supplemented with FCS-HI (10%), Non-essential amino acids (1%), L-Glutamine (2 mM), Pen/Strep (1%) and Geneticin (50 mg/ml).
A 70% confluent T225 flask of A549 SPAP cells was harvested by centrifugation for 5 mins at 200 g, resuspended in assay buffer (DMEM supplemented with 10% FCS 2×HI, 2 mM L-Glutamine, 1% Pen/Strep and Non essential amino acids) and diluted to 0.16×10^6/ml. 60 μl of cell solution was dispensed to each well of clear Nunc 384-well plates, containing compound at the required concentration. […] Plates were equilibrated to room temperature for 1 hr prior to the addition of 25 μl of pNPP buffer (1M Diethanolamine pH 9.8, 0.5 mM MgCl2, 0.28M NaCl, 2 mg/ml pNPP) to each well of assay plates.

GR [2] = target: T3, GR; assay: GR Agonist Assay - MMTV Assay (A549 MMTV cells, renilla luciferase reporter); type: cell-based; conditions: 6 h, agonists, read-out: average maximum asymptote in the MMTV agonist assay
Procedure: Stimulation of the cell line with GR agonists results in intracellular signal transduction and ultimately translocation of GR into the nucleus. This activates the inserted DNA sequence resulting in transcription of the integrated luciferase gene, which is quantified using a light emission. The stably transfected cell line was grown as a monolayer in DMEM supplemented with FCS-HI (10%), Non-essential amino acids (1%), L-Glutamine (2 mM), Pen/Strep (1%) and Geneticin (50 mg/ml).
A 90% confluent T175 flask of A549 MMTV cells was harvested by centrifugation for 5 min at 200 g, resuspended in assay buffer (DMEM supplemented with 10% FCS 2×HI, 2 mM Glutamax, Non essential amino acids and 25 mM HEPES) and diluted to 0.1×10^6/ml. 70 μl of cell solution was dispensed to each well of white Nunc 384-well plates, containing compound at the required concentration. […] The plates were covered to protect the reagents from light, and then incubated at room temperature for approximately 15 mins before reading them on a Viewlux.

[3] = at least once in the NFkB assay, A549 SPAP cells, read-out: pIC50 in the NFkB assay (converted)
[4] = at least once, examples listed as agonists in NFkB and MMTV assays, read-out: potency pIC50 in the NFKB assay (converted)

Row | EC50 (Progesterone Receptor) | IC50 (glucocorticoid receptor) | Emax (GR [1]; A549 SPAP cells) | IC50 (GR [1]; [3]) | IC50 (GR [1]; [4]) | Emax (GR [2]) | SMILES
1 | > 1 µM | – | – | – | – | – | CCN(CC(O)(CNC(=O)c1cnn(-c2ccc(F)cc2)c1N)C(F)(F)F)C(=O)c1ncccc1Cl (racemic) [Example 3 (racemic), N-[2-[({[5-Amino-1-(4-fluorophenyl)-1H-pyrazol-4-yl]carbonyl]amino)methyl]-3,3,3-trifluoro-2-hydroxypropyl}-3-chloro-N-ethyl-2-Pyridinecarboxamide]
2 | > 1 µM | < 1 µM | ≥ 40% | < 1 µM | < 0.316 µM | ≥ 40% | CCN(CC(O)(CNC(=O)c1cnn(-c2ccc(F)cc2)c1N)C(F)(F)F)C(=O)c1ccccc1F (racemic) [Example 4 (racemic), 5-Amino-N-[2-({ethyl[(2-fluorophenyl)carbonyl]amino}methyl)-3,3,3-trifluoro-2-hydroxypropyl]-1-(4-fluorophenyl)-1H-pyrazole-4-carboxamide]
3 | > 1 µM | < 1 µM | ≥ 40% | < 1 µM | < 0.316 µM | ≥ 40% | CN(CC(O)(CNC(=O)c1cnn(-c2ccc(F)cc2)c1N)C(F)(F)F)C(=O)c1ccccc1F (racemic) [Example 6 (racemic), 5-amino-1-(4-fluorophenyl)-N-(3,3,3-trifluoro-2-{[[(2-fluorophenyl)car-bonyl](methyl)amino]methyl}-2-hydroxypropyl)-1H-pyrazole-4-carboxamide]
4 | > 1 µM | < 1 µM | ≥ 40% | < 1 µM | < 0.316 µM | ≥ 40% | CN(CC(O)(CNC(=O)c1cnn(-c2ccc(F)cc2)c1N)C(F)(F)F)C(=O)c1ccccc1Cl (racemic) [Example 7 (racemic), 5-amino-N-(2-{[[(2-chlorophenyl)car-bonyl](methyl)amino]methyl}-3,3,3-trifluoro-2-hydroxypropyl)-1-(4-fluorophenyl)-1H-pyrazole-4-carboxamide]
5 | > 1 µM | – | ≥ 40% | < 1 µM | < 0.316 µM | ≥ 40% | CCN(CC(O)(CNC(=O)c1cnn(-c2ccc(F)cc2)c1N)C(F)(F)F)C(=O)c1cccc2cccnc12 (racemic) [Example 8 (racemic), N-{2-[({[5-amino-1-(4-fluorophenyl)-1H-pyrazol-4-yl]carbonyl}amino)methyl]-3,3,3-trifluoro-2-hydroxypropyl}-N-ethyl-8-quinolinecarboxamide]
6 | > 1 µM | – | – | – | – | – | CCN(CC(O)(CNC(=O)c1cnn(-c2ccc(F)cc2)c1N)C(F)(F)F)C(=O)c1ccccc1Cl (racemic) [Example 16 (racemic), 5-amino-N-(2-{[[(2-chlorophenyl)car-bonyl](ethyl)amino]methyl}-3,3,3-trifluoro-2-hydroxypropyl)-1-(4-fluorophenyl)-1H-pyrazole-4-carboxamide]
7 | > 1 µM | < 1 µM | – | < 1 µM | – | – | Nc1c(C(=O)NCC(O)(CN(CCF)C(=O)c2ccccc2)C(F)(F)F)cnn1-c1ccc(F)cc1 (single isomer, unassigned) [Example 1 Enantiomer 1, 5-Amino-1-(4-fluorophenyl)-N-(3,3,3-trifluoro-2-{[(2-fluoroethyl)(phenylcarbonyl)amino]methyl}-2-hydroxypropyl)-1H-pyrazole-4-carboxamide]
8 | > 1 µM | – | – | < 1 µM | – | – | CCN(CC(O)(CNC(=O)c1cnn(-c2ccc(F)cc2)c1N)C(F)(F)F)C(=O)c1ccccc1F (single isomer, unassigned) [Example 4 Enantiomer 1, 5-Amino-N-[2-({ethyl[(2-fluorophenyl)carbonyl]amino}methyl)-3,3,3-trifluoro-2-hydroxypropyl]-1-(4-fluorophenyl)-1H-pyrazole-4-carboxamide]
9 | > 1 µM | < 1 µM | – | – | – | – | CCN(CC(O)(CNC(=O)c1cnn(-c2ccc(F)cc2)c1N)C(F)(F)F)C(=O)c1ccccc1 (single isomer, unassigned) [Example 14 Enantiomer 1, 5-amino-N-(2-{[ethyl(phenylcar-bonyl)amino]methyl}-3,3,3-trifluoro-2-hydroxypropyl)-1-(4-fluorophenyl)-1H-pyrazole-4-carboxamide]
10 | > 1 µM | – | – | – | – | – | CCN(CC(O)(CNC(=O)c1cnn(-c2ccc(F)cc2)c1N)C(F)(F)F)C(=O)c1ccccc1Cl (single isomer, unassigned) [Example 16 Enantiomer 1, 5-amino-N-(2-{[[(2-chlorophenyl)car-bonyl](ethyl)amino]methyl}-3,3,3-trifluoro-2-hydroxypropyl)-1-(4-fluorophenyl)-1H-pyrazole-4-carboxamide]
